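Exposure lasted 48 hours, with cells grown in 96-well plates and compounds tested at five concentrations. TGI marks complete inhibition of growth.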
Tests used:
Experiment in all cases: NCI tumour cell line growth inhibition, 48 h
SK-OV-3 ovarian = test system: SK-OV-3 ovarian
LXFL 529 NSCLC = test system: LXFL 529 NSCLC
COLO 205 colon = test system: COLO 205 colon
SK-MEL-28 melanoma = test system: SK-MEL-28 melanoma
TK-10 renal = test system: TK-10 renal
U251 CNS = test system: U251 CNS
CCRF-CEM leukemia = test system: CCRF-CEM leukemia
MOLT-4 leukemia = test system: MOLT-4 leukemia
NCI-H460 lung = test system: NCI-H460 lung
KM12 colon = test system: KM12 colon
SNB-75 CNS = test system: SNB-75 CNS
A549 NSCLC = test system: A549 NSCLC
RXF-631 renal = test system: RXF-631 renal
HOP-92 NSCLC = test system: HOP-92 NSCLC
OVCAR-5 ovarian = test system: OVCAR-5 ovarian
OVCAR-4 ovarian = test system: OVCAR-4 ovarian
A498 renal = test system: A498 renal
HCC-2998 colon = test system: HCC-2998 colon
MALME-3M melanoma = test system: MALME-3M melanoma
M14 melanoma = test system: M14 melanoma
K-562 leukemia = test system: K-562 leukemia
786-0 renal = test system: 786-0 renal
IGROV1 ovarian = test system: IGROV1 ovarian
UO-31 renal = test system: UO-31 renal
CAKI-1 renal = test system: CAKI-1 renal
SF-539 CNS = test system: SF-539 CNS
HT29 colon = test system: HT29 colon
DLD-1 colon = test system: DLD-1 colon
OVCAR-3 ovarian = test system: OVCAR-3 ovarian
SNB-19 CNS = test system: SNB-19 CNS
KM20L2 colon = test system: KM20L2 colon
LOX IMVI melanoma = test system: LOX IMVI melanoma
RPMI-8226 leukemia = test system: RPMI-8226 leukemia
OVCAR-8 ovarian = test system: OVCAR-8 ovarian
HCT-15 colon = test system: HCT-15 colon
NCI-H522 lung = test system: NCI-H522 lung
HOP-18 NSCLC = test system: HOP-18 NSCLC
XF 498 CNS = test system: XF 498 CNS
UACC-62 melanoma = test system: UACC-62 melanoma
NCI-H23 lung = test system: NCI-H23 lung
SK-MEL-5 melanoma = test system: SK-MEL-5 melanoma
SF-295 CNS = test system: SF-295 CNS
ACHN renal = test system: ACHN renal
SF-268 CNS = test system: SF-268 CNS
DMS 273 small cell lung = test system: DMS 273 small cell lung
SN12C renal = test system: SN12C renal
SK-MEL-2 melanoma = test system: SK-MEL-2 melanoma
EKVX NSCLC = test system: EKVX NSCLC
M19-MEL melanoma = test system: M19-MEL melanoma
SW-620 colon = test system: SW-620 colon
HL-60(TB) leukemia = test system: HL-60(TB) leukemia
UACC-257 melanoma = test system: UACC-257 melanoma
NCI-H226 lung = test system: NCI-H226 lung
HOP-62 NSCLC = test system: HOP-62 NSCLC
SR leukemia = test system: SR leukemia
SNB-78 CNS = test system: SNB-78 CNS
DMS 114 small cell lung = test system: DMS 114 small cell lung
HCT-116 colon = test system: HCT-116 colon

With CCCCCCCCCOC(=S)NC as the compound, how does the TGI (SK-OV-3 ovarian) read?
The TGI was 45.7 µM.

What about the TGI (LXFL 529 NSCLC) of the same compound?
The TGI was 34.8 µM.

What about the TGI (COLO 205 colon) of the same compound?
Its TGI is 49.2 µM.

What about the TGI (SK-MEL-28 melanoma) of the same compound?
The TGI was 58.5 µM.

And the TGI (TK-10 renal)?
Its TGI is 54.6 µM.

And the TGI (U251 CNS)?
Its TGI is 31.5 µM.

What about the TGI (CCRF-CEM leukemia) of the same compound?
Its TGI is 47.7 µM.

What about the TGI (MOLT-4 leukemia) of the same compound?
Its TGI is 46.5 µM.

What about the TGI (NCI-H460 lung) of the same compound?
The TGI was 36.3 µM.

What about the TGI (KM12 colon) of the same compound?
Its TGI is 57 µM.

What about the TGI (SNB-75 CNS) of the same compound?
Its TGI is 73.7 µM.

And the TGI (A549 NSCLC)?
Its TGI is 65.1 µM.

What about the TGI (RXF-631 renal) of the same compound?
Its TGI is 49.5 µM.

What about the TGI (HOP-92 NSCLC) of the same compound?
Its TGI is 42.5 µM.

What about the TGI (OVCAR-5 ovarian) of the same compound?
The TGI was 38.1 µM.

And the TGI (OVCAR-4 ovarian)?
Its TGI is 42.2 µM.

What about the TGI (A498 renal) of the same compound?
Its TGI is 48.8 µM.

What about the TGI (HCC-2998 colon) of the same compound?
The TGI was 35.3 µM.

What about the TGI (MALME-3M melanoma) of the same compound?
The TGI was 43.8 µM.

What about the TGI (M14 melanoma) of the same compound?
The TGI was 45.8 µM.

What about the TGI (K-562 leukemia) of the same compound?
The TGI was 51.1 µM.

What about the TGI (786-0 renal) of the same compound?
The TGI was 33.5 µM.

And the TGI (IGROV1 ovarian)?
The TGI was 63.7 µM.

And the TGI (UO-31 renal)?
Its TGI is 23.2 µM.

What about the TGI (CAKI-1 renal) of the same compound?
Its TGI is 43.1 µM.

And the TGI (SF-539 CNS)?
Its TGI is 32.5 µM.

And the TGI (HT29 colon)?
Its TGI is 42.2 µM.

And the TGI (DLD-1 colon)?
The TGI was 34.9 µM.

What about the TGI (OVCAR-3 ovarian) of the same compound?
The TGI was 36.1 µM.

And the TGI (SNB-19 CNS)?
Its TGI is greater than 100 µM.

And the TGI (KM20L2 colon)?
Its TGI is 32.5 µM.

What about the TGI (LOX IMVI melanoma) of the same compound?
Its TGI is 35.5 µM.

And the TGI (RPMI-8226 leukemia)?
Its TGI is 48.4 µM.

And the TGI (OVCAR-8 ovarian)?
The TGI was 44.9 µM.

What about the TGI (HCT-15 colon) of the same compound?
Its TGI is 36.1 µM.

And the TGI (NCI-H522 lung)?
Its TGI is 31.2 µM.

And the TGI (HOP-18 NSCLC)?
Its TGI is 44.2 µM.

What about the TGI (XF 498 CNS) of the same compound?
Its TGI is 35.3 µM.

What about the TGI (UACC-62 melanoma) of the same compound?
Its TGI is 53.9 µM.

What about the TGI (NCI-H23 lung) of the same compound?
Its TGI is 34.6 µM.

What about the TGI (SK-MEL-5 melanoma) of the same compound?
Its TGI is 39.6 µM.

And the TGI (SF-295 CNS)?
Its TGI is 67.5 µM.

What about the TGI (ACHN renal) of the same compound?
The TGI was 37.6 µM.

What about the TGI (SF-268 CNS) of the same compound?
The TGI was 38.5 µM.

And the TGI (DMS 273 small cell lung)?
The TGI was 33.6 µM.

And the TGI (SN12C renal)?
The TGI was 36.9 µM.

And the TGI (SK-MEL-2 melanoma)?
The TGI was 41 µM.

And the TGI (EKVX NSCLC)?
Its TGI is 51.6 µM.

What about the TGI (M19-MEL melanoma) of the same compound?
Its TGI is 53.9 µM.

What about the TGI (SW-620 colon) of the same compound?
The TGI was 40.9 µM.

And the TGI (HL-60(TB) leukemia)?
Its TGI is 34.1 µM.

C/C(=N\O)c1sc(-n2nc(-c3ccccc3)cc2-c2ccccc2)nc1C was tested. Which TGI (LXFL 529 NSCLC) did it give?
Its TGI is 16.3 µM.

And the TGI (UACC-257 melanoma)?
The TGI was 21.3 µM.

And the TGI (NCI-H226 lung)?
Its TGI is 17.6 µM.

What about the TGI (SK-MEL-28 melanoma) of the same compound?
The TGI was 17.8 µM.

What about the TGI (U251 CNS) of the same compound?
The TGI was 16.3 µM.

What about the TGI (CCRF-CEM leukemia) of the same compound?
The TGI was 25.6 µM.

What about the TGI (MOLT-4 leukemia) of the same compound?
The TGI was 25.5 µM.

And the TGI (NCI-H460 lung)?
Its TGI is 21.6 µM.

And the TGI (KM12 colon)?
Its TGI is 17.3 µM.

And the TGI (SNB-75 CNS)?
The TGI was greater than 31.6 µM.

What about the TGI (A549 NSCLC) of the same compound?
The TGI was 25.3 µM.

What about the TGI (RXF-631 renal) of the same compound?
Its TGI is greater than 31.6 µM.

And the TGI (A498 renal)?
Its TGI is greater than 31.6 µM.

And the TGI (HCC-2998 colon)?
Its TGI is 18.2 µM.

What about the TGI (MALME-3M melanoma) of the same compound?
Its TGI is 31 µM.

What about the TGI (M14 melanoma) of the same compound?
Its TGI is 18.3 µM.

And the TGI (K-562 leukemia)?
The TGI was 24.6 µM.

What about the TGI (786-0 renal) of the same compound?
Its TGI is 15.8 µM.

What about the TGI (IGROV1 ovarian) of the same compound?
The TGI was 22 µM.

What about the TGI (UO-31 renal) of the same compound?
Its TGI is 15.3 µM.

And the TGI (CAKI-1 renal)?
Its TGI is 27.3 µM.

What about the TGI (SF-539 CNS) of the same compound?
Its TGI is 16.7 µM.

What about the TGI (HT29 colon) of the same compound?
Its TGI is 19 µM.

And the TGI (DLD-1 colon)?
Its TGI is 20.1 µM.

What about the TGI (OVCAR-3 ovarian) of the same compound?
The TGI was greater than 31.6 µM.

What about the TGI (SNB-19 CNS) of the same compound?
The TGI was 17.9 µM.

What about the TGI (KM20L2 colon) of the same compound?
The TGI was 16.1 µM.

What about the TGI (HOP-62 NSCLC) of the same compound?
The TGI was 22.2 µM.

And the TGI (SR leukemia)?
The TGI was 28.6 µM.

And the TGI (LOX IMVI melanoma)?
The TGI was 18 µM.

What about the TGI (RPMI-8226 leukemia) of the same compound?
Its TGI is 23.6 µM.

And the TGI (OVCAR-8 ovarian)?
The TGI was 18.1 µM.

What about the TGI (HCT-15 colon) of the same compound?
The TGI was 22.9 µM.

What about the TGI (NCI-H522 lung) of the same compound?
Its TGI is 17 µM.

And the TGI (SNB-78 CNS)?
Its TGI is greater than 100 µM.

What about the TGI (DMS 114 small cell lung) of the same compound?
Its TGI is 22.8 µM.

And the TGI (UACC-62 melanoma)?
The TGI was 16.9 µM.

What about the TGI (NCI-H23 lung) of the same compound?
The TGI was 15.1 µM.

What about the TGI (SK-MEL-5 melanoma) of the same compound?
The TGI was 17.3 µM.

What about the TGI (SF-295 CNS) of the same compound?
Its TGI is 20.2 µM.

What about the TGI (ACHN renal) of the same compound?
The TGI was 19.6 µM.

And the TGI (SF-268 CNS)?
The TGI was 19.8 µM.

And the TGI (DMS 273 small cell lung)?
Its TGI is 49.6 µM.

What about the TGI (SN12C renal) of the same compound?
The TGI was 15.4 µM.

And the TGI (SK-MEL-2 melanoma)?
Its TGI is greater than 65.6 µM.

What about the TGI (HCT-116 colon) of the same compound?
Its TGI is 17.1 µM.

And the TGI (EKVX NSCLC)?
The TGI was greater than 31.6 µM.

What about the TGI (M19-MEL melanoma) of the same compound?
The TGI was 20.8 µM.

And the TGI (SW-620 colon)?
The TGI was 19.6 µM.

What about the TGI (HL-60(TB) leukemia) of the same compound?
The TGI was 23 µM.
